Laboratory results taken from US20060134102A1, “Lymphotoxin beta receptor agents in combination with chemotherapeutic agents” (Biogen Idec MA Inc., priority 2002, published 2006).

Test system: KM-20L2 human colorectal adenocarcinoma
Assay: KM-20L2 xenograft model: growth of established KM-20L2 human colorectal tumors in athymic nude mice (tumor volume/weight, % T/C, Fa, Combination Index)
Type: in vivo

Substance: huCBE11: humanized anti-LT-β-R agonist antibody (LTβ receptor-activating mAb), described in WO 02/30986
- Median Effect Dose (Combined (1:0.63 huCBE11:Camptosar), dose of the labelled agent in the combination, Day 13): 10.7 mg/kg
- Median Effect Dose (Combined (1:0.63 huCBE11:Camptosar), dose of the labelled agent in the combination, Day 16): 2.6 mg/kg
- Median Effect Dose (Combined (1:0.63 huCBE11:Camptosar), dose of the labelled agent in the combination, Day 20): 1.0 mg/kg
- Median Effect Dose (Combined (1:0.63 huCBE11:Camptosar), dose of the labelled agent in the combination, Day 23): 1.1 mg/kg
- Median Effect Dose (Combined (1:0.63 huCBE11:Camptosar), dose of the labelled agent in the combination, Day 27): 1.5 mg/kg
- Median Effect Dose (Combined (1:0.63 huCBE11:Camptosar), dose of the labelled agent in the combination, Day 30): 1.8 mg/kg
- Median Effect Dose (Combined (1:0.63 huCBE11:Camptosar), dose of the labelled agent in the combination, Day 34): 1.8 mg/kg
- Median Effect Dose (Combined (1:0.63 huCBE11:Camptosar), dose of the labelled agent in the combination, Day 37): 1.6 mg/kg
- Median Effect Dose (Combined (1:0.63 huCBE11:Camptosar), dose of the labelled agent in the combination, Day 41): 1.5 mg/kg
- Median Effect Dose (Given Separately, Day 13): 174 mg/kg
- Median Effect Dose (Given Separately, Day 16): 981 mg/kg
- Median Effect Dose (Given Separately, Day 20): 32.7 mg/kg
- Median Effect Dose (Given Separately, Day 23): 9.0 mg/kg
- Median Effect Dose (Given Separately, Day 27): 2.1 mg/kg
- Median Effect Dose (Given Separately, Day 30): 3.8 mg/kg
- Median Effect Dose (Given Separately, Day 34): 3.6 mg/kg
- Median Effect Dose (Given Separately, Day 37): 6.6 mg/kg
- Median Effect Dose (Given Separately, Day 41): 3.0 mg/kg
- Median Effect Dose (Given Separately; Day 16): 2077 mg/kg
- Median Effect Dose (Given Separately; Day 20): 9.5 mg/kg
- Median Effect Dose (Given Separately; Day 23): 4.8 mg/kg
- Median Effect Dose (Given Separately; Day 27): 3.3 mg/kg
- Median Effect Dose (Given Separately; Day 30): 3.8 mg/kg
- Median Effect Dose (Given Separately; Day 34): 3.2 mg/kg
- Median Effect Dose (Given Separately; Day 37): 2.7 mg/kg
- Median Effect Dose (Given Separately; Day 41): 2.4 mg/kg
- Median Effect Dose (Given Separately; Day 43): 2.4 mg/kg
- Median Effect Dose (dose of the labelled agent when huCBE11 and Gemcitabine Combined (4:5); Day 16): 3.6 mg/kg
- Median Effect Dose (dose of the labelled agent when huCBE11 and Gemcitabine Combined (4:5); Day 20): 1.3 mg/kg
- Median Effect Dose (dose of the labelled agent when huCBE11 and Gemcitabine Combined (4:5); Day 23): 0.6 mg/kg
- Median Effect Dose (dose of the labelled agent when huCBE11 and Gemcitabine Combined (4:5); Day 27): 0.7 mg/kg
- Median Effect Dose (dose of the labelled agent when huCBE11 and Gemcitabine Combined (4:5); Day 30): 0.6 mg/kg
- Median Effect Dose (dose of the labelled agent when huCBE11 and Gemcitabine Combined (4:5); Day 34): 0.6 mg/kg
- Median Effect Dose (dose of the labelled agent when huCBE11 and Gemcitabine Combined (4:5); Day 37): 0.4 mg/kg
- Median Effect Dose (dose of the labelled agent when huCBE11 and Gemcitabine Combined (4:5); Day 41): 0.6 mg/kg
- Median Effect Dose (dose of the labelled agent when huCBE11 and Gemcitabine Combined (4:5); Day 43): 0.4 mg/kg
- % T/C (hCBE11 2 mg/kg; Days 41 to 55): ≤ 42%
- % T/C (hCBE11 4 mg/kg; Days 50 and 55): ≤ 42%
- Mean Fraction Affected (Fa) (huCBE11 0.2 mg/kg alone, Day 9): −0.026
- Mean Fraction Affected (Fa) (huCBE11 0.2 mg/kg alone, Day 13): 0.003
- Mean Fraction Affected (Fa) (huCBE11 0.2 mg/kg alone, Day 16): 0.125
- Mean Fraction Affected (Fa) (huCBE11 0.2 mg/kg alone, Day 20): 0.249
- Mean Fraction Affected (Fa) (huCBE11 0.2 mg/kg alone, Day 23): 0.294
- Mean Fraction Affected (Fa) (huCBE11 0.2 mg/kg alone, Day 27): 0.377
- Mean Fraction Affected (Fa) (huCBE11 0.2 mg/kg alone, Day 30): 0.369
- Mean Fraction Affected (Fa) (huCBE11 0.2 mg/kg alone, Day 34): 0.345
- Mean Fraction Affected (Fa) (huCBE11 0.2 mg/kg alone, Day 37): 0.372
- Mean Fraction Affected (Fa) (huCBE11 0.2 mg/kg alone, Day 41): 0.381
- Mean Fraction Affected (Fa) (huCBE11 0.2 mg/kg; Day 9): 0.063
- Mean Fraction Affected/Fraction Unaffected (Fa/Fu) (huCBE11 0.2 mg/kg; Day 9): 0.067
- Mean Tumor Volume (huCBE11 0.2 mg/kg; Day 9): 104.8 cubic mm
- Mean Tumor Volume Decrease (huCBE11 0.2 mg/kg; Day 9): 7.0 cubic mm
- Mean Fraction Affected (Fa) (huCBE11 0.2 mg/kg; Day 13): 0.071
- Mean Fraction Affected/Fraction Unaffected (Fa/Fu) (huCBE11 0.2 mg/kg; Day 13): 0.076
- Mean Tumor Volume (huCBE11 0.2 mg/kg; Day 13): 160.4 cubic mm
- Mean Tumor Volume Decrease (huCBE11 0.2 mg/kg; Day 13): 12.2 cubic mm
- Mean Fraction Affected (Fa) (huCBE11 0.2 mg/kg; Day 16): 0.055
- Mean Fraction Affected/Fraction Unaffected (Fa/Fu) (huCBE11 0.2 mg/kg; Day 16): 0.058
- Mean Tumor Volume (huCBE11 0.2 mg/kg; Day 16): 250.5 cubic mm
- Mean Tumor Volume Decrease (huCBE11 0.2 mg/kg; Day 16): 14.5 cubic mm
- Mean Fraction Affected (Fa) (huCBE11 0.2 mg/kg; Day 20): 0.073
- Mean Fraction Affected/Fraction Unaffected (Fa/Fu) (huCBE11 0.2 mg/kg; Day 20): 0.078
- Mean Tumor Volume (huCBE11 0.2 mg/kg; Day 20): 371.9 cubic mm
- Mean Tumor Volume Decrease (huCBE11 0.2 mg/kg; Day 20): 29.1 cubic mm
- Mean Fraction Affected (Fa) (huCBE11 0.2 mg/kg; Day 23): 0.016
- Mean Fraction Affected/Fraction Unaffected (Fa/Fu) (huCBE11 0.2 mg/kg; Day 23): 0.016
- Mean Tumor Volume (huCBE11 0.2 mg/kg; Day 23): 518.7 cubic mm
- Mean Tumor Volume Decrease (huCBE11 0.2 mg/kg; Day 23): 8.5 cubic mm
- Mean Fraction Affected/Fraction Unaffected (Fa/Fu) (huCBE11 0.2 mg/kg; Day 27): −0.008
- Mean Tumor Volume (huCBE11 0.2 mg/kg; Day 27): 673.8 cubic mm
- Mean Tumor Volume Decrease (huCBE11 0.2 mg/kg; Day 27): −5.2 cubic mm
- Mean Fraction Affected (Fa) (huCBE11 0.2 mg/kg; Day 30): 0.030
- Mean Fraction Affected/Fraction Unaffected (Fa/Fu) (huCBE11 0.2 mg/kg; Day 30): 0.030
- Mean Tumor Volume (huCBE11 0.2 mg/kg; Day 30): 792.1 cubic mm
- Mean Tumor Volume Decrease (huCBE11 0.2 mg/kg; Day 30): 24.1 cubic mm
- Mean Fraction Affected (Fa) (huCBE11 0.2 mg/kg; Day 34): 0.118
- Mean Fraction Affected/Fraction Unaffected (Fa/Fu) (huCBE11 0.2 mg/kg; Day 34): 0.134
- Mean Tumor Volume (huCBE11 0.2 mg/kg; Day 34): 926.4 cubic mm
- Mean Tumor Volume Decrease (huCBE11 0.2 mg/kg; Day 34): 123.9 cubic mm
- Mean Fraction Affected (Fa) (huCBE11 0.2 mg/kg; Day 37): 0.132
- Mean Fraction Affected/Fraction Unaffected (Fa/Fu) (huCBE11 0.2 mg/kg; Day 37): 0.152
- Mean Tumor Volume (huCBE11 0.2 mg/kg; Day 37): 1048.5 cubic mm
- Mean Tumor Volume Decrease (huCBE11 0.2 mg/kg; Day 37): 159.5 cubic mm
- Mean Fraction Affected (Fa) (huCBE11 0.2 mg/kg; Day 41): 0.120
- Mean Fraction Affected/Fraction Unaffected (Fa/Fu) (huCBE11 0.2 mg/kg; Day 41): 0.137
- Mean Tumor Volume (huCBE11 0.2 mg/kg; Day 41): 1266.0 cubic mm
- Mean Tumor Volume Decrease (huCBE11 0.2 mg/kg; Day 41): 173.4 cubic mm
- Mean Fraction Affected (Fa) (huCBE11 0.2 mg/kg; Day 43): 0.096
- Mean Fraction Affected/Fraction Unaffected (Fa/Fu) (huCBE11 0.2 mg/kg; Day 43): 0.107
- Mean Tumor Volume (huCBE11 0.2 mg/kg; Day 43): 1452.0 cubic mm
- Mean Tumor Volume Decrease (huCBE11 0.2 mg/kg; Day 43): 154.7 cubic mm
- Mean Fraction Affected (Fa) (huCBE11 2 mg/kg alone, Day 9): 0.101
- Mean Fraction Affected (Fa) (huCBE11 2 mg/kg alone, Day 13): 0.137
- Mean Fraction Affected (Fa) (huCBE11 2 mg/kg alone, Day 16): 0.322
- Mean Fraction Affected (Fa) (huCBE11 2 mg/kg alone, Day 20): 0.458
- Mean Fraction Affected (Fa) (huCBE11 2 mg/kg alone, Day 23): 0.497
- Mean Fraction Affected (Fa) (huCBE11 2 mg/kg alone, Day 27): 0.542
- Mean Fraction Affected (Fa) (huCBE11 2 mg/kg alone, Day 30): 0.524
- Mean Fraction Affected (Fa) (huCBE11 2 mg/kg alone, Day 34): 0.541
- Mean Fraction Affected (Fa) (huCBE11 2 mg/kg alone, Day 37): 0.485
- Mean Fraction Affected (Fa) (huCBE11 2 mg/kg alone, Day 41): 0.541
- % T/C, lowest observed (huCBE11 2 mg/kg and 4 mg/kg; dose ranging study): > 42%
